We go through three molecules from US4271163A, “Novel 3,4-diaza-bicyclo[4.1.0]hept-2-en-5-ones, their preparation, and therapeutic agents containing these compounds” (BASF Aktiengesellschaft, priority 1978, dated 1981).

Converted amounts (≈) assume the structure as drawn.

One test deals with rat thrombocytes. Put plainly: Inhibition of the collagen-induced aggregation of rat thrombocytes ex vivo. It is filed as in vivo, rat (male Sprague-Dawley). Conditions: Rattus norvegicus; rats, oral administration; dose which inhibits the collagen-induced aggregation by 33%; read-out: Inhibition of thrombocyte aggregation, ED 33%. As to the method:
(§1) Thrombocyte-rich plasma is obtained by centrifuging venous citrate blood (300 g, 10 minutes duration at 4° C.). The photometric measurement of the thrombocyte aggregation is carried out with addition of MgCl2 (final concentration 10 millimoles/l) and of collagen Stago (final concentration 0.02 mg/ml) in a Born Mk 3 aggregometer. The maximum extinction change/sec is used as a measure of the aggregation.
2. Inhibition of the collagen-induced aggregation of rat thrombocytes ex vivo.
The substances are administered orally to groups of 10-15 male Sprague-Dawley rat weighing 200-250 g. 1-4 hours after administration, blood is taken under ether narcosis and thrombocyte-rich plasma is obtained by centrifuging. The aggregation after addition of collagen is measured as indicated above. The ED 33% is determined as the dose which inhibits the collagen-induced thrombocyte aggregation by 33%.
(§2) The effective doses or effective concentrations were calculated from the linear relationships between the logarithm of the dose or concentration and the logarithm of the effect, by means of regression analysis.
(§3) Acetylsalicylic acid was used as the reference substance for the inhibition of thrombocyte aggregation and dihydralazine for the anti-hypertensive effect.
As for `CCC(=O)Nc1ccc(C2=NNC(=O)C3CC23)cc1` (stereo not drawn) [Example 11, 2-(p-propionylaminophenyl)-3,4-diaza-bicyclo[4.1.0]hept-2-en-5-one], the ED (33%) came to 1.48 mg/kg.

On to `O=C(Nc1ccc(C2=NNC(=O)C3CC23)cc1)C1CC1` (stereo not drawn) [Example 13, 2-(p-cyclopropylcarbonylaminophenyl)-3,4-diaza-bicyclo[4.1.0]hept-2-en-5-one hemihydrate], for which the ED (33%) came out at 2.5 mg/kg.

Take `CC(Cl)C(=O)Nc1ccc(C2=NNC(=O)C3CC23)cc1` (stereo not drawn) [Example 20, 2-[p-(2-chloropropionylamino)-phenyl]-3,4-diaza-bicyclo[4.1.0]hept-2-en-5-one]: the ED (33%) was 3.74 mg/kg.

Still in this test, the particulars now being: rats, oral administration; acetylsalicylic acid = 1.00.
Consider `CCC(=O)Nc1ccc(C2=NNC(=O)C3CC23)cc1` (stereo not drawn) [Example 11, 2-(p-propionylaminophenyl)-3,4-diaza-bicyclo[4.1.0]hept-2-en-5-one], for which the “Inhibition of thrombocyte aggregation, R.A. (relative activity)” value turned out to be 90.54.

With `O=C(Nc1ccc(C2=NNC(=O)C3CC23)cc1)C1CC1` (stereo not drawn) [Example 13, 2-(p-cyclopropylcarbonylaminophenyl)-3,4-diaza-bicyclo[4.1.0]hept-2-en-5-one hemihydrate], the “Inhibition of thrombocyte aggregation, R.A. (relative activity)” value was 53.60.

On to `CC(Cl)C(=O)Nc1ccc(C2=NNC(=O)C3CC23)cc1` (stereo not drawn) [Example 20, 2-[p-(2-chloropropionylamino)-phenyl]-3,4-diaza-bicyclo[4.1.0]hept-2-en-5-one], for which the “Inhibition of thrombocyte aggregation, R.A. (relative activity)” value is listed as 35.83.

The test is the same for the next values; noted with them: rats, oral; versus acetylsalicylic acid.
Regarding `CCC(=O)Nc1ccc(C2=NNC(=O)C3CC23)cc1` (stereo not drawn) [Example 11, 2-(p-propionylaminophenyl)-3,4-diaza-bicyclo[4.1.0]hept-2-en-5-one], the “Inhibition of thrombocyte aggregation after oral administration in vivo (in words)” value (shortened to “Inhibition … (in words)”) is “far surpasses the effect of acetylsalicylic acid”.

As for `O=C(Nc1ccc(C2=NNC(=O)C3CC23)cc1)C1CC1` (stereo not drawn) [Example 13, 2-(p-cyclopropylcarbonylaminophenyl)-3,4-diaza-bicyclo[4.1.0]hept-2-en-5-one hemihydrate], the “Inhibition … (in words)” value is “far surpasses the effect of acetylsalicylic acid”.

Regarding `CC(Cl)C(=O)Nc1ccc(C2=NNC(=O)C3CC23)cc1` (stereo not drawn) [Example 20, 2-[p-(2-chloropropionylamino)-phenyl]-3,4-diaza-bicyclo[4.1.0]hept-2-en-5-one], the “Inhibition … (in words)” value was “far surpasses the effect of acetylsalicylic acid”.

For another test, the system named is narcotized rats. The test can be described thus: Anti-hypertensive effect on narcotized rats. It is filed as in vivo, rat (male Sprague-Dawley). Conditions: Rattus norvegicus, ip; rats under urethane narcosis; intraperitoneal; dose which lowers the blood pressure by 20%; read-out: Reduction in blood pressure, ED 20%. How it is done:
3. Anti-hypertensive effect on narcotized rats.
To test the anti-hypertensive effect, the substances are administered intraperitoneally to groups of 3-5 male Sprague-Dawley rats weighing 240-280 g, under urethane narcosis ([…] given intraperitoneally).
The measurement of the blood pressure in the carotid artery is carried out by means of Statham transducers. The ED 20% is determined as the dose which lowers the mean carotid blood pressure by 20%.
as §2, §3
Consider `CCC(=O)Nc1ccc(C2=NNC(=O)C3CC23)cc1` (stereo not drawn) [Example 11, 2-(p-propionylaminophenyl)-3,4-diaza-bicyclo[4.1.0]hept-2-en-5-one], for which the ED (20%) came out at 0.134 mg/kg.

As to `O=C(Nc1ccc(C2=NNC(=O)C3CC23)cc1)C1CC1` (stereo not drawn) [Example 13, 2-(p-cyclopropylcarbonylaminophenyl)-3,4-diaza-bicyclo[4.1.0]hept-2-en-5-one hemihydrate], the ED (20%) stood at 0.0465 mg/kg.

As to `CC(Cl)C(=O)Nc1ccc(C2=NNC(=O)C3CC23)cc1` (stereo not drawn) [Example 20, 2-[p-(2-chloropropionylamino)-phenyl]-3,4-diaza-bicyclo[4.1.0]hept-2-en-5-one], the ED (20%) was determined as 0.278 mg/kg.

Staying with this test, now noted: rats under urethane narcosis; intraperitoneal; dihydralazine = 1.00.
With `CCC(=O)Nc1ccc(C2=NNC(=O)C3CC23)cc1` (stereo not drawn) [Example 11, 2-(p-propionylaminophenyl)-3,4-diaza-bicyclo[4.1.0]hept-2-en-5-one], the “Reduction in blood pressure, R.A. (relative activity)” value (shortened to “Reduction … (relative activity)”) was found to be 2.52.

For the molecule `O=C(Nc1ccc(C2=NNC(=O)C3CC23)cc1)C1CC1` (stereo not drawn) [Example 13, 2-(p-cyclopropylcarbonylaminophenyl)-3,4-diaza-bicyclo[4.1.0]hept-2-en-5-one hemihydrate], the “Reduction … (relative activity)” value was 7.25.

Turning to `CC(Cl)C(=O)Nc1ccc(C2=NNC(=O)C3CC23)cc1` (stereo not drawn) [Example 20, 2-[p-(2-chloropropionylamino)-phenyl]-3,4-diaza-bicyclo[4.1.0]hept-2-en-5-one], the “Reduction … (relative activity)” value is given as 1.21.

For the next test, the system named is human thrombocytes. Put plainly: Inhibition of the collagen-induced aggregation of human thrombocytes in vitro. Conditions: 10 min; human thrombocytes in vitro; concentration which inhibits the collagen-induced aggregation by 50%; 10 minutes incubation; read-out: Inhibition of collagen-induced thrombocyte aggregation in vitro, EC 50%. In kind it is cell-based. How it is done: 1. Inhibition of the collagen-induced aggregation of human thrombocytes in vitro.
as §1
The aggregation-inhibiting activity of the substances is tested after an incubation time of 10 minutes.
The EC 50% is taken to be the concentration causing 50% inhibition of aggregation.
as §2, §3
For `CCC(=O)Nc1ccc(C2=NNC(=O)C3CC23)cc1` (stereo not drawn) [Example 11, 2-(p-propionylaminophenyl)-3,4-diaza-bicyclo[4.1.0]hept-2-en-5-one], the EC50 amounted to 0.28 µg/mL (≈ 1.09 µM).

`O=C(Nc1ccc(C2=NNC(=O)C3CC23)cc1)C1CC1` (stereo not drawn) [Example 13, 2-(p-cyclopropylcarbonylaminophenyl)-3,4-diaza-bicyclo[4.1.0]hept-2-en-5-one hemihydrate]: the EC50 is 5.57 µg/mL.

For the molecule `CC(Cl)C(=O)Nc1ccc(C2=NNC(=O)C3CC23)cc1` (stereo not drawn) [Example 20, 2-[p-(2-chloropropionylamino)-phenyl]-3,4-diaza-bicyclo[4.1.0]hept-2-en-5-one], the EC50 was determined as 0.99 µg/mL (≈ 3.39 µM).

The same test, now with this note: human thrombocytes in vitro; acetylsalicylic acid = 1.00.
For the molecule `CCC(=O)Nc1ccc(C2=NNC(=O)C3CC23)cc1` (stereo not drawn) [Example 11, 2-(p-propionylaminophenyl)-3,4-diaza-bicyclo[4.1.0]hept-2-en-5-one], the “Inhibition of aggregation, R.A. (relative activity)” value was found to be 1760.

As to `O=C(Nc1ccc(C2=NNC(=O)C3CC23)cc1)C1CC1` (stereo not drawn) [Example 13, 2-(p-cyclopropylcarbonylaminophenyl)-3,4-diaza-bicyclo[4.1.0]hept-2-en-5-one hemihydrate], the “Inhibition of aggregation, R.A. (relative activity)” value was found to be 89.

As for `CC(Cl)C(=O)Nc1ccc(C2=NNC(=O)C3CC23)cc1` (stereo not drawn) [Example 20, 2-[p-(2-chloropropionylamino)-phenyl]-3,4-diaza-bicyclo[4.1.0]hept-2-en-5-one], the “Inhibition of aggregation, R.A. (relative activity)” value stood at 499.

A further test deals with spontaneously hypertonic rats. The test can be described thus: Anti-hypertensive effect on spontaneously hypertonic rats. It is filed as in vivo, rat (male spontaneously hypertonic Okamoto). Conditions: Rattus norvegicus, 2 h, oral administration, dose which lowers the blood pressure by 20% compared to the control group. How it is done:
4. Anti-hypertensive effect on spontaneously hypertonic rats.
The substances are administered orally to groups of 4-8 male spontaneously hypertonic Okamoto rats weighing 270-340 g. Before, and 2 hours after, the administration, the systolic blood pressure is measured non-surgically by means of piezo-electric crystal sensors.
The ED 20% is determined as the dose which lowers the systolic pressure by 20%, taking into account the values found with untreated control animals.
as §2, §3
`CCC(=O)Nc1ccc(C2=NNC(=O)C3CC23)cc1` (stereo not drawn) [Example 11, 2-(p-propionylaminophenyl)-3,4-diaza-bicyclo[4.1.0]hept-2-en-5-one] returned an ED (20%) of 10 mg/kg.

In turn, `O=C(Nc1ccc(C2=NNC(=O)C3CC23)cc1)C1CC1` (stereo not drawn) [Example 13, 2-(p-cyclopropylcarbonylaminophenyl)-3,4-diaza-bicyclo[4.1.0]hept-2-en-5-one hemihydrate] came in with an ED (20%) of 2.78 mg/kg.

In turn, `CC(Cl)C(=O)Nc1ccc(C2=NNC(=O)C3CC23)cc1` (stereo not drawn) [Example 20, 2-[p-(2-chloropropionylamino)-phenyl]-3,4-diaza-bicyclo[4.1.0]hept-2-en-5-one] gave an ED (20%) of 10 mg/kg.

Still in this test, the particulars now being: oral.
For `CCC(=O)Nc1ccc(C2=NNC(=O)C3CC23)cc1` (stereo not drawn) [Example 11, 2-(p-propionylaminophenyl)-3,4-diaza-bicyclo[4.1.0]hept-2-en-5-one], the “Anti-hypertensive effect in spontaneously hypertonic rats after oral administration (in words)” value (“Anti-hypertensive effect … (in words)” for short) is listed as “demonstrable”.

As to `O=C(Nc1ccc(C2=NNC(=O)C3CC23)cc1)C1CC1` (stereo not drawn) [Example 13, 2-(p-cyclopropylcarbonylaminophenyl)-3,4-diaza-bicyclo[4.1.0]hept-2-en-5-one hemihydrate], the “Anti-hypertensive effect … (in words)” value is recorded as “demonstrable”.

Consider `CC(Cl)C(=O)Nc1ccc(C2=NNC(=O)C3CC23)cc1` (stereo not drawn) [Example 20, 2-[p-(2-chloropropionylamino)-phenyl]-3,4-diaza-bicyclo[4.1.0]hept-2-en-5-one], for which the “Anti-hypertensive effect … (in words)” value was “demonstrable”.

Still in this test, the particulars now being: oral administration, dihydralazine = 1.00.
With `CCC(=O)Nc1ccc(C2=NNC(=O)C3CC23)cc1` (stereo not drawn) [Example 11, 2-(p-propionylaminophenyl)-3,4-diaza-bicyclo[4.1.0]hept-2-en-5-one], the “Anti-hypertensive effect, R.A.” value is listed as 0.69.

With `O=C(Nc1ccc(C2=NNC(=O)C3CC23)cc1)C1CC1` (stereo not drawn) [Example 13, 2-(p-cyclopropylcarbonylaminophenyl)-3,4-diaza-bicyclo[4.1.0]hept-2-en-5-one hemihydrate], the “Anti-hypertensive effect, R.A.” value was 2.46.

Regarding `CC(Cl)C(=O)Nc1ccc(C2=NNC(=O)C3CC23)cc1` (stereo not drawn) [Example 20, 2-[p-(2-chloropropionylamino)-phenyl]-3,4-diaza-bicyclo[4.1.0]hept-2-en-5-one], the “Anti-hypertensive effect, R.A.” value was determined as 0.69.
